Assay results as given in ChEMBL document CHEMBL1221220, “Transport and signaling via the amino acid binding site of the yeast Gap1 amino acid transceptor” (Nat Chem Biol, 2009).
Positions count from the first letter of the chain named. Activity calls are given as the source filed them. The calls are words filed in the database; no cut-off is given here.

Tests used:
[1] = system: T1, General amino-acid permease GAP1 (Saccharomyces cerevisiae), P19145 [S398C]; experiment: Induction of yeast Gap1 S398C mutant-mediated trehalose activation at 2 mM in presence of 10 mM MTSEA treated before compound addition
T1 sequence (whole entry): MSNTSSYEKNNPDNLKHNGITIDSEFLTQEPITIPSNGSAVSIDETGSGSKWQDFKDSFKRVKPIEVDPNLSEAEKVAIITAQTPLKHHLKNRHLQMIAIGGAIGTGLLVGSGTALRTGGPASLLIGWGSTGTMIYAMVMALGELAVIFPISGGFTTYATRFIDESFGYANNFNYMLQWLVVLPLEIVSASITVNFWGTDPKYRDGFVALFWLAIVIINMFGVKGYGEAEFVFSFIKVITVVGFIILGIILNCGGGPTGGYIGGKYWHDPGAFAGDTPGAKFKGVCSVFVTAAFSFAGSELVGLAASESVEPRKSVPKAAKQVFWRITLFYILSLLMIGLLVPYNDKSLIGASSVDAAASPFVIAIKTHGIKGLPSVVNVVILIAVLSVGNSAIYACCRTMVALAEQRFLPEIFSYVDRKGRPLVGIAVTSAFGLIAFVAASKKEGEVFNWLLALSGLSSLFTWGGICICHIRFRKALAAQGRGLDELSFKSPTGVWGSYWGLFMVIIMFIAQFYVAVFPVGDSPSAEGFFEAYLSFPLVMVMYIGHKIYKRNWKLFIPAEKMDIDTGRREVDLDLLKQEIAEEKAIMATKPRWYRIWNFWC

[2] = system: T2, General amino-acid permease GAP1 (Saccharomyces cerevisiae), P19145 [L387C]; experiment: Activation of yeast Gap1 L387C mutant-mediated amino acid uptake at 10 mM
T2 sequence (whole entry): T1 sequence (whole entry) with L387C, C398S

[3] = system: T3, General amino-acid permease GAP1 (Saccharomyces cerevisiae), P19145 [N391C]; experiment: Induction of yeast Gap1 N391C mutant-mediated trehalose activation at 2 mM in presence of 10 mM MTSEA treated before compound addition
T3 sequence (whole entry): T1 sequence (whole entry) with N391C, C398S

[4] = system: T4, General amino-acid permease GAP1 (Saccharomyces cerevisiae), P19145 [V381C]; experiment: Activation of yeast Gap1 V381C mutant-mediated amino acid uptake at 10 mM
T4 sequence (whole entry): T1 sequence (whole entry) with V381C, C398S

inhibition [1]: Active | Activity [2]: inactive | inhibition [3]: Active | Activity [4]: inactive
SMILES: NC(=O)NCCC[C@H](N)C(=O)O
